Laboratory results as given in US20180099931A1 (AbbVie S.à.r.l., priority 2016, published 2018).
pEC50: −log10 of the molar value. Like-named read-outs stand apart in the source and are kept apart here.

Target: T1, F508delCFTR (Homo sapiens, UniProt P13569, DEL508-508)
T1 construct: expressed in transfected cells; host or cells: CFBE41o- human lung-derived epithelial cells (CFBE4lo-F508delCFTR-HRP), doxycycline-inducible
Assay: Cell Surface Expression-Horse Radish Peroxidase (CSE-HRP) Assay;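 on Maximum % activity (with co-corrector): co-corrector and positive control are both the same reference corrector at 2 µM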;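 on Maximum % activity (without co-corrector): percent of the 2 µM on-plate positive control corrector response above DMSO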
Format: cell-based
Conditions: CSE-HRP; for Maximum % activity (with co-corrector): with co-corrector (2 μM); for Maximum % activity (with co-corrector) / Emax: maximum at any tested concentration, normalized to on-plate positive control; for Emax: without co-corrector, read-out: Maximum % activity (without co-corrector)

[1] = test compound without co-corrector, read-out: EC50 (without co-corrector)
[2] = with co-corrector (2 μM of 3-[(2R,4R)-4-({[1-(2,2-difluoro-1,3-benzodioxol-5-yl)cyclopropyl]carbonyl}amino)-7-methoxy-3,4-dihydro-2H-chromen-2-yl]benzoic acid), read-out: EC50 (with co-corrector)

T1 sequence (P13569 with tags, fused parts or gaps DEL508-508): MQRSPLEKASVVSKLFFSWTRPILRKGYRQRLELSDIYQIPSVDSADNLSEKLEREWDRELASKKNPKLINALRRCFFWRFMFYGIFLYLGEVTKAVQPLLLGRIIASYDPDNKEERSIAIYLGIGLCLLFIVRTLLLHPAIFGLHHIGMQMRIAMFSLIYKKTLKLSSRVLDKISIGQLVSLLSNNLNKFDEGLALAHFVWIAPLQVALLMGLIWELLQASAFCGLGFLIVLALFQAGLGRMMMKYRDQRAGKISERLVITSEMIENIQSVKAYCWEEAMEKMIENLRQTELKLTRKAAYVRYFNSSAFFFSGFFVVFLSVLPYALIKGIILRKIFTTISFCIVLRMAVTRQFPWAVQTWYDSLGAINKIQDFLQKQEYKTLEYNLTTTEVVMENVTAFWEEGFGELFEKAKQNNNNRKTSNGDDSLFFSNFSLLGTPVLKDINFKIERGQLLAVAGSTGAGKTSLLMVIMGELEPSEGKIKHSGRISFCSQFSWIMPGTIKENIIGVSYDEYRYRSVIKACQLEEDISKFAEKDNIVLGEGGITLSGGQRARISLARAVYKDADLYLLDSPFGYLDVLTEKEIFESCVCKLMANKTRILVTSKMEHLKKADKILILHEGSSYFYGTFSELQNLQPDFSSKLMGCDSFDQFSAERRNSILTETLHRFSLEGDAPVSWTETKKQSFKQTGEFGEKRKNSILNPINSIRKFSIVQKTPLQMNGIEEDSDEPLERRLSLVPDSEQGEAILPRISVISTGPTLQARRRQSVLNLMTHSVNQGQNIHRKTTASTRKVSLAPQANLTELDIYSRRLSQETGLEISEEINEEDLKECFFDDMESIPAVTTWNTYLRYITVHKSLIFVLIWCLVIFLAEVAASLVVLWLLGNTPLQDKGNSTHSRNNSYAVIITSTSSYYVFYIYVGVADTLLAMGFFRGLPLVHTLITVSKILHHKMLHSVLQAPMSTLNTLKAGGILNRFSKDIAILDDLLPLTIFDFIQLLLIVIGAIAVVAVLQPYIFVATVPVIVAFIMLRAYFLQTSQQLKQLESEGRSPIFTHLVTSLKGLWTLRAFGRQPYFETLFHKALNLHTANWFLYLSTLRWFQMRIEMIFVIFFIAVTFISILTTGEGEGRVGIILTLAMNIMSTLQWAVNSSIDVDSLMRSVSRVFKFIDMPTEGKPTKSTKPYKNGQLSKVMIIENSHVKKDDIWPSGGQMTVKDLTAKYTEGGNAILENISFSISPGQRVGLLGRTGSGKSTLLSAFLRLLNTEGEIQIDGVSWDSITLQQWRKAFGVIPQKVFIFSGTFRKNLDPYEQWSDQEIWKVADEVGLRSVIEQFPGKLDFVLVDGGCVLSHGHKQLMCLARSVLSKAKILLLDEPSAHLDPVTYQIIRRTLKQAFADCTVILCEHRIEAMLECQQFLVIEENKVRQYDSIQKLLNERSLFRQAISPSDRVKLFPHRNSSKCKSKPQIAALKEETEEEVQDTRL

SMILES: COc1ncc(C(F)(F)F)cc1CN[C@H]1[C@H](C(C)(C)C)[C@@H](C(=O)O)N(C(=O)[C@@H]2CCCO2)[C@H]1c1ccccc1C [Example I-262]
- pEC50 [1]: 5.00 to 6.00
- pEC50 [2]: 5.00 to 6.00
- Maximum % activity (with co-corrector): +++ (≥350)
- Emax: > 200%

SMILES: CC(C)OC(=O)N1[C@H](C(=O)O)[C@@H](C(C)(C)C)[C@H](NCCc2ccccc2)[C@@H]1c1ccccc1 [Example I-263]
- pEC50 [1]: 5.00 to 6.00
- pEC50 [2]: 5.00 to 6.00
- Maximum % activity (with co-corrector): ++ (≥150 and <350)
- Emax: < 100%

SMILES: CC(C)OC(=O)N1[C@H](C(=O)O)[C@@H](C(C)(C)C)[C@H](NCC(C)(C)c2ccccc2)[C@@H]1c1ccccc1 [Example I-264]
- pEC50 [1]: 5.00 to 6.00
- pEC50 [2]: 5.00 to 6.00
- Maximum % activity (with co-corrector): ++ (≥150 and <350)
- Emax: < 100%

SMILES: COc1ncc(C2CCC2)cc1CN[C@H]1[C@H](C(C)(C)C)[C@@H](C(=O)O)N(C(=O)[C@@H]2CCCO2)[C@H]1c1ccccc1C [Example I-265]
- pEC50 [1]: 5.00 to 6.00
- pEC50 [2]: 5.00 to 6.00
- Maximum % activity (with co-corrector): +++ (≥350)
- Emax: > 200%

SMILES: COc1ncc(C2CCC2)cc1CN[C@H]1[C@H](C(C)(C)C)[C@@H](C(=O)O)N(C(=O)[C@H]2CCCCO2)[C@H]1c1ccccc1C [Example I-266]
- pEC50 [1]: 5.00 to 6.00
- pEC50 [2]: 5.00 to 6.00
- Maximum % activity (with co-corrector): +++ (≥350)
- Emax: > 200%

SMILES: COc1ccccc1C1(CN[C@H]2[C@H](C(C)(C)C)[C@@H](C(=O)O)N(C(=O)OC(C)C)[C@H]2c2ccccc2)CCOCC1 [Example I-267]
- pEC50 [1]: < 5.00
- pEC50 [2]: 5.00 to 6.00
- Maximum % activity (with co-corrector): + (<150)
- Emax: < 100%

SMILES: CC(C)OC(=O)N1[C@H](C(=O)O)[C@@H](C(C)(C)C)[C@H](NCC2CCCN(c3ccc(C(F)(F)F)cc3)C2)[C@@H]1c1ccccc1 (stereo partly shown) [Example I-268]
- pEC50 [1]: 5.00 to 6.00
- pEC50 [2]: 5.00 to 6.00
- Maximum % activity (with co-corrector): +++ (≥350)
- Emax: < 100%

SMILES: COc1ccc(C(F)(F)F)cc1CN[C@H]1[C@H](C(C)(C)C)[C@@H](C(=O)O)N(C(=O)[C@@H]2CCCO2)[C@H]1c1cccnc1C1CC1 [Example I-269]
- pEC50 [1]: 5.00 to 6.00
- pEC50 [2]: 5.00 to 6.00
- Maximum % activity (with co-corrector): +++ (≥350)
- Emax: 100 to 200%

SMILES: COc1ncc(C(F)(F)F)cc1CN[C@H]1[C@H](C(C)(C)C)[C@@H](C(=O)O)N(C(=O)C2CC2)[C@H]1c1ccccc1C(C)C [Example I-271]
- pEC50 [1]: 5.00 to 6.00
- pEC50 [2]: 5.00 to 6.00
- Maximum % activity (with co-corrector): +++ (≥350)
- Emax: > 200%

SMILES: COc1ncc(C(F)(F)F)cc1CN[C@H]1[C@H](C(C)(C)C)[C@@H](C(=O)O)N(C(=O)C23CC(C2)C3)[C@H]1c1ccccc1C(C)C [Example I-272]
- pEC50 [1]: 5.00 to 6.00
- pEC50 [2]: > 6.00
- Maximum % activity (with co-corrector): +++ (≥350)
- Emax: 100 to 200%

SMILES: COc1ncc(C(F)(F)F)cc1CN[C@H]1[C@H](C(C)(C)C)[C@@H](C(=O)O)N(C(=O)C2CCC2)[C@H]1c1ccccc1C(C)C [Example I-273]
- pEC50 [1]: 5.00 to 6.00
- pEC50 [2]: > 6.00
- Maximum % activity (with co-corrector): +++ (≥350)
- Emax: > 200%

SMILES: CCOc1ccc(Br)cc1CN[C@H]1[C@H](C(C)(C)C)[C@@H](C(=O)O)N(C(=O)OC(C)C)[C@H]1c1cccnc1N1CCC1 [Example I-274]
- pEC50 [1]: 5.00 to 6.00
- pEC50 [2]: 5.00 to 6.00
- Maximum % activity (with co-corrector): +++ (≥350)
- Emax: 100 to 200%

SMILES: COc1cc(C(F)(F)F)ccc1CN[C@H]1[C@H](C(C)(C)C)[C@@H](C(=O)O)N(C(=O)OC(C)C)[C@H]1c1cccnc1N1CCC1 [Example I-275]
- pEC50 [1]: 5.00 to 6.00
- pEC50 [2]: 5.00 to 6.00
- Maximum % activity (with co-corrector): +++ (≥350)
- Emax: > 200%

SMILES: COc1ncccc1NC1CC(N[C@H]2[C@H](C(C)(C)C)[C@@H](C(=O)O)N(C(=O)OC(C)C)[C@H]2c2ccccc2C2CC2)C1 (stereo partly shown) [Example I-276]
- pEC50 [1]: 5.00 to 6.00
- pEC50 [2]: 5.00 to 6.00
- Maximum % activity (with co-corrector): +++ (≥350)
- Emax: 100 to 200%

SMILES: COc1ccc(C(C)(C)C)cc1CN[C@H]1[C@H](C(C)(C)C)[C@@H](C(=O)O)N(C(=O)C2CCC2)[C@H]1c1ccccc1C(F)(F)F [Example I-277]
- pEC50 [1]: 5.00 to 6.00
- pEC50 [2]: 5.00 to 6.00
- Maximum % activity (with co-corrector): +++ (≥350)
- Emax: 100 to 200%

SMILES: COc1ncc(C2CCC2)cc1CN[C@H]1[C@H](C(C)(C)C)[C@@H](C(=O)O)N(C(=O)C2CCC2)[C@H]1c1ccccc1C(F)(F)F [Example I-278]
- pEC50 [1]: 5.00 to 6.00
- pEC50 [2]: 5.00 to 6.00
- Maximum % activity (with co-corrector): ++ (≥150 and <350)
- Emax: < 100%

SMILES: COc1ccc(C2(C)CCC2)cc1CN[C@H]1[C@H](C(C)(C)C)[C@@H](C(=O)O)N(C(=O)C2CCC2)[C@H]1c1ccccc1C(F)(F)F [Example I-279]
- pEC50 [1]: 5.00 to 6.00
- pEC50 [2]: 5.00 to 6.00
- Maximum % activity (with co-corrector): +++ (≥350)
- Emax: 100 to 200%

SMILES: COc1ncc(C(F)(F)F)cc1CN[C@H]1[C@H](C(C)(C)C)[C@@H](C(=O)O)N(C(=O)C2CCC2)[C@H]1c1ccccc1C(F)(F)F [Example I-280]
- pEC50 [1]: 5.00 to 6.00
- pEC50 [2]: 5.00 to 6.00
- Maximum % activity (with co-corrector): ++ (≥150 and <350)
- Emax: < 100%

SMILES: COc1ncc(C2CCC2)cc1CN[C@H]1[C@H](C(C)(C)C)[C@@H](C(=O)O)N(C(=O)[C@@H]2CCCO2)[C@H]1c1cccnc1N(C)C [Example I-281]
- pEC50 [1]: 5.00 to 6.00
- pEC50 [2]: 5.00 to 6.00
- Maximum % activity (with co-corrector): +++ (≥350)
- Emax: 100 to 200%

SMILES: COc1ccc(C2(C)CCC2)cc1CN[C@H]1[C@H](C(C)(C)C)[C@@H](C(=O)O)N(C(=O)[C@@H]2CCCO2)[C@H]1c1cccnc1N(C)C [Example I-283]
- pEC50 [1]: 5.00 to 6.00
- pEC50 [2]: 5.00 to 6.00
- Maximum % activity (with co-corrector): +++ (≥350)
- Emax: > 200%

SMILES: COc1ccc(C(C)(C)C)cc1CN[C@H]1[C@H](C(C)(C)C)[C@@H](C(=O)O)N(C(=O)[C@@H]2CCCO2)[C@H]1c1cccnc1N(C)C [Example I-284]
- pEC50 [1]: 5.00 to 6.00
- pEC50 [2]: 5.00 to 6.00
- Maximum % activity (with co-corrector): +++ (≥350)
- Emax: > 200%

SMILES: CC(C)c1ccccc1[C@H]1[C@@H](NCc2cc(C(C)(C)C)ccc2O)[C@H](C(C)(C)C)[C@@H](C(=O)O)N1C(=O)[C@@H]1CCCO1 [Example I-285]
- pEC50 [1]: < 5.00
- pEC50 [2]: > 6.00
- Maximum % activity (with co-corrector): + (<150)
- Emax: < 100%

SMILES: COc1ncc(C2CCC2)cc1CN[C@H]1[C@H](C(C)(C)C)[C@@H](C(=O)O)N(C(=O)[C@@H]2CCCO2)[C@H]1c1ccccc1C(F)(F)F [Example I-286]
- pEC50 [1]: 5.00 to 6.00
- pEC50 [2]: > 6.00
- Maximum % activity (with co-corrector): +++ (≥350)
- Emax: 100 to 200%

SMILES: COc1ncc(Br)cc1CN[C@H]1[C@H](C(C)(C)C)[C@@H](C(=O)O)N(C(=O)[C@@H]2CCCCO2)[C@H]1c1ccccc1C [Example I-287]
- pEC50 [1]: 5.00 to 6.00
- pEC50 [2]: > 6.00
- Maximum % activity (with co-corrector): +++ (≥350)
- Emax: > 200%

SMILES: COc1ncc(C(F)(F)F)cc1CN[C@H]1[C@H](C(C)(C)C)[C@@H](C(=O)O)N(C(=O)[C@@H]2CCCCO2)[C@H]1c1ccccc1Br [Example I-288]
- pEC50 [1]: 5.00 to 6.00
- pEC50 [2]: > 6.00
- Maximum % activity (with co-corrector): +++ (≥350)
- Emax: 100 to 200%

SMILES: COc1cc(C(F)(F)F)ccc1CN[C@H]1[C@H](C(C)(C)C)[C@@H](C(=O)O)N(C(=O)[C@@H]2CCCCO2)[C@H]1c1ccccc1Br [Example I-289]
- pEC50 [1]: 5.00 to 6.00
- pEC50 [2]: > 6.00
- Maximum % activity (with co-corrector): +++ (≥350)
- Emax: 100 to 200%

SMILES: COc1ccc(C(F)(F)F)cc1CN[C@H]1[C@H](C(C)(C)C)[C@@H](C(=O)O)N(C(=O)[C@@H]2CCCCO2)[C@H]1c1ccccc1Br [Example I-290]
- pEC50 [1]: 5.00 to 6.00
- pEC50 [2]: 5.00 to 6.00
- Maximum % activity (with co-corrector): +++ (≥350)
- Emax: > 200%

SMILES: COc1ncc(C2CCC2)cc1CN[C@H]1[C@H](C(C)(C)C)[C@@H](C(=O)O)N(C(=O)[C@@H]2CCCCO2)[C@H]1c1ccccc1Br [Example I-291]
- pEC50 [1]: > 6.00
- pEC50 [2]: > 6.00
- Maximum % activity (with co-corrector): +++ (≥350)
- Emax: 100 to 200%

SMILES: COc1ncc(C(F)(F)F)cc1CN[C@H]1[C@H](C(C)(C)C)[C@@H](C(=O)O)N(C(=O)[C@@H]2CCCO2)[C@H]1c1ccccc1Br [Example I-292]
- pEC50 [1]: 5.00 to 6.00
- pEC50 [2]: > 6.00
- Maximum % activity (with co-corrector): +++ (≥350)
- Emax: 100 to 200%

SMILES: COc1ncc(C2CC2)cc1CN[C@H]1[C@H](C(C)(C)C)[C@@H](C(=O)O)N(C(=O)[C@@H]2CCCO2)[C@H]1c1ccccc1Br [Example I-293]
- pEC50 [1]: 5.00 to 6.00
- pEC50 [2]: 5.00 to 6.00
- Maximum % activity (with co-corrector): +++ (≥350)
- Emax: > 200%

SMILES: COc1ccc(C(C)(C)C)cc1CN[C@H]1[C@H](C(C)(C)C)[C@@H](C(=O)O)N(C(=O)[C@@H]2CCCO2)[C@H]1c1ccccc1Br [Example I-294]
- pEC50 [1]: 5.00 to 6.00
- pEC50 [2]: > 6.00
- Maximum % activity (with co-corrector): +++ (≥350)
- Emax: > 200%

SMILES: COc1ccc(C2(C)CCC2)cc1CN[C@H]1[C@H](C(C)(C)C)[C@@H](C(=O)O)N(C(=O)[C@@H]2CCCO2)[C@H]1c1ccccc1Br [Example I-295]
- pEC50 [1]: 5.00 to 6.00
- pEC50 [2]: > 6.00
- Maximum % activity (with co-corrector): +++ (≥350)
- Emax: > 200%

SMILES: COc1ncc(C2CCC2)cc1CN[C@H]1[C@H](C(C)(C)C)[C@@H](C(=O)O)N(C(=O)[C@@H]2CCCCO2)[C@H]1c1ccccc1C1CC1 [Example I-296]
- pEC50 [1]: 5.00 to 6.00
- pEC50 [2]: 5.00 to 6.00
- Maximum % activity (with co-corrector): +++ (≥350)
- Emax: > 200%

SMILES: CCc1ccccc1[C@H]1[C@@H](NCc2cc(C3CCC3)cnc2OC)[C@H](C(C)(C)C)[C@@H](C(=O)O)N1C(=O)[C@@H]1CCCCO1 [Example I-297]
- pEC50 [1]: 5.00 to 6.00
- pEC50 [2]: > 6.00
- Maximum % activity (with co-corrector): +++ (≥350)
- Emax: > 200%
